Assays:
Format in all cases: in vivo
[1] = test system: Abutilon theophrasti (ABUTH); assay: Post-emergence Test (glasshouse, percentage damage to the plant); conditions: post-emergence spray, 1000 g/ha unless otherwise stated, evaluated after 13 days
How it was run: (§1)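 Compound formulated in 50:50 acetone/water with 0.5% Tween 20 was diluted to an aqueous spray and applied at 1000 g/ha, unless otherwise stated, onto sown pots. Evaluation after 13 days gave percentage damage, banded into a 1–5 score.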

[2] = test system: Amaranthus retoflexus (AMARE); assay: as above; conditions: post-emergence spray, 1000 g/ha unless otherwise stated, evaluated after 13 days
How it was run: as §1

[3] = test system: Echinochloa crus-galli (ECHCG); assay: as above; conditions: post-emergence spray, 1000 g/ha unless otherwise stated, evaluated after 13 days
How it was run: as §1

[4] = test system: Ipomoea hederacea (IPOHE); assay: as above; conditions: post-emergence spray, 1000 g/ha unless otherwise stated, evaluated after 13 days
How it was run: (§2)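 Scored 13 days after spraying as percentage plant damage in five bands (5=81–100%, 4=61–80%, 3=41–60%, 2=21–40%, 1=0–20%). Spray at 1000 g/ha unless stated, in acetone/water 50:50 plus 0.5% Tween 20, onto sown glasshouse pots (24/16 °C, 14 h light, 65% humidity).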

Setaria faberi (SETFA) [5] = assay: as above; conditions: post-emergence spray, 1000 g/ha unless otherwise stated, evaluated after 13 days
How it was run: as §2

Zea mays (ZEAMX) [6] = assay: as above; conditions: post-emergence spray, 1000 g/ha unless otherwise stated, evaluated after 13 days
How it was run: as §2

[7] = test system: Amaranthus retoflexus (AMARE); assay: Pre-emergence Test (glasshouse, percentage damage to the plant); conditions: 1000 g/ha unless otherwise stated, five-point scale
Setaria faberi (SETFA) [8] = assay: as above; conditions: 1000 g/ha unless otherwise stated, five-point scale
[9] = test system: Echinochloa crus-galli (ECHCG); assay: as above; conditions: 1000 g/ha unless otherwise stated, five-point scale
[10] = test system: Ipomoea hederacea (IPOHE); assay: as above; conditions: 1000 g/ha unless otherwise stated, five-point scale
[11] = test system: Abutilon theophrasti (ABUTH); assay: as above; conditions: 1000 g/ha unless otherwise stated, five-point scale
Zea mays (ZEAMX) [12] = assay: as above; conditions: 1000 g/ha unless otherwise stated, five-point scale

CCn1c(C)c(-c2cc(C)c(OC)c(C)c2)c(=O)c(C(=O)O)c1-c1ccc(Cl)c(Cl)c1 [Compound 71, 2-(3,4-dichlorophenyl)-1-ethyl-5-(4-methoxy-3,5-dimethyl-phenyl)-6-methyl-4-oxo-pyridine-3-carboxylic acid]
Post-emergence Test ABUTH, percentage damage to the plant (five-point scale) [1]: 2 (2=21-40%) | Post-emergence Test AMARE, percentage damage to the plant (five-point scale) [2]: 1 (1=0-20%) | Post-emergence Test ECHCG, percentage damage to the plant (five-point scale) [3]: 1 (1=0-20%) | Post-emergence Test IPOHE, percentage damage to the plant (five-point scale) [4]: 1 (1=0-20%) | Post-emergence Test SETFA, percentage damage to the plant (five-point scale) (Setaria faberi (SETFA) [5]): 1 (1=0-20%) | Post-emergence Test ZEAMX, percentage damage to the plant (five-point scale) (Zea mays (ZEAMX) [6]): 1 (1=0-20%) | percentage damage to the plant, AMARE [7]: 2 (2=21-40%) | percentage damage to the plant, SETFA (Setaria faberi (SETFA) [8]): 2 (2=21-40%) | percentage damage to the plant, ECHCG [9]: 1 (1=0-20%) | percentage damage to the plant, IPOHE [10]: 1 (1=0-20%) | percentage damage to the plant, ABUTH [11]: 1 (1=0-20%) | percentage damage to the plant, ZEAMX (Zea mays (ZEAMX) [12]): 1 (1=0-20%)

CCNC(=O)c1cc(-c2c(C)n(CC)c(-c3ccc(Cl)c(Cl)c3)c(C(=O)O)c2=O)ccc1Cl [Compound 72, 5-[4-chloro-3-(ethylcarbamoyl)phenyl]-(3,4-dichlorophenyl)-1-ethyl-6-methyl-4-oxo-pyridine-3-carboxylic acid]
Post-emergence Test ABUTH, percentage damage to the plant (five-point scale) [1]: 1 (1=0-20%) | Post-emergence Test AMARE, percentage damage to the plant (five-point scale) [2]: 1 (1=0-20%) | Post-emergence Test ECHCG, percentage damage to the plant (five-point scale) [3]: 1 (1=0-20%) | Post-emergence Test IPOHE, percentage damage to the plant (five-point scale) [4]: 1 (1=0-20%) | Post-emergence Test SETFA, percentage damage to the plant (five-point scale) (Setaria faberi (SETFA) [5]): 1 (1=0-20%) | Post-emergence Test ZEAMX, percentage damage to the plant (five-point scale) (Zea mays (ZEAMX) [6]): 1 (1=0-20%) | percentage damage to the plant, AMARE [7]: 1 (1=0-20%) | percentage damage to the plant, SETFA (Setaria faberi (SETFA) [8]): 1 (1=0-20%) | percentage damage to the plant, ECHCG [9]: 1 (1=0-20%) | percentage damage to the plant, IPOHE [10]: 1 (1=0-20%) | percentage damage to the plant, ABUTH [11]: 1 (1=0-20%) | percentage damage to the plant, ZEAMX (Zea mays (ZEAMX) [12]): 1 (1=0-20%)

CCn1c(C)c(-c2cc(F)c(F)c(F)c2)c(=O)c(C(=O)O)c1-c1ccc(Cl)c(Cl)c1 [Compound 73, 2-(3,4-dichlorophenyl)-1-ethyl-6-methyl-4-oxo-5-(3,4,5-trifluorophenyl)pyridine-3-carboxylic acid]
Post-emergence Test ABUTH, percentage damage to the plant (five-point scale) [1]: 3 (3=41-60%) | Post-emergence Test AMARE, percentage damage to the plant (five-point scale) [2]: 2 (2=21-40%) | Post-emergence Test ECHCG, percentage damage to the plant (five-point scale) [3]: 3 (3=41-60%) | Post-emergence Test IPOHE, percentage damage to the plant (five-point scale) [4]: 3 (3=41-60%) | Post-emergence Test SETFA, percentage damage to the plant (five-point scale) (Setaria faberi (SETFA) [5]): 4 (4=61-80%) | Post-emergence Test ZEAMX, percentage damage to the plant (five-point scale) (Zea mays (ZEAMX) [6]): 2 (2=21-40%) | percentage damage to the plant, AMARE [7]: 1 (1=0-20%) | percentage damage to the plant, SETFA (Setaria faberi (SETFA) [8]): 4 (4=61-80%) | percentage damage to the plant, ECHCG [9]: 2 (2=21-40%) | percentage damage to the plant, IPOHE [10]: 2 (2=21-40%) | percentage damage to the plant, ABUTH [11]: 2 (2=21-40%) | percentage damage to the plant, ZEAMX (Zea mays (ZEAMX) [12]): 1 (1=0-20%)

CCn1c(C)c(-c2cccs2)c(=O)c(C(=O)O)c1-c1ccc(Cl)c(Cl)c1 [Compound 74, 2-(3,4-dichlorophenyl)-1-ethyl-6-methyl-4-oxo-5-(2-thienyl)pyridine-3-carboxylic acid]
Post-emergence Test ABUTH, percentage damage to the plant (five-point scale) [1]: 3 (3=41-60%) | Post-emergence Test AMARE, percentage damage to the plant (five-point scale) [2]: 1 (1=0-20%) | Post-emergence Test ECHCG, percentage damage to the plant (five-point scale) [3]: 3 (3=41-60%) | Post-emergence Test IPOHE, percentage damage to the plant (five-point scale) [4]: 2 (2=21-40%) | Post-emergence Test SETFA, percentage damage to the plant (five-point scale) (Setaria faberi (SETFA) [5]): 3 (3=41-60%) | Post-emergence Test ZEAMX, percentage damage to the plant (five-point scale) (Zea mays (ZEAMX) [6]): 2 (2=21-40%) | percentage damage to the plant, AMARE [7]: 1 (1=0-20%) | percentage damage to the plant, SETFA (Setaria faberi (SETFA) [8]): 4 (4=61-80%) | percentage damage to the plant, ECHCG [9]: 3 (3=41-60%) | percentage damage to the plant, IPOHE [10]: 1 (1=0-20%) | percentage damage to the plant, ABUTH [11]: 2 (2=21-40%) | percentage damage to the plant, ZEAMX (Zea mays (ZEAMX) [12]): 1 (1=0-20%)

CCn1c(C)c(-c2cc(F)c(OC)c(Cl)c2)c(=O)c(C(=O)O)c1-c1ccc(Cl)c(Cl)c1 [Compound 75, 5-(3-chloro-5-fluoro-4-methoxy-phenyl)-2-(3,4-dichlorophenyl)-1-ethyl-6-methyl-4-oxo-pyridine-3-carboxylic acid]
Post-emergence Test ABUTH, percentage damage to the plant (five-point scale) [1]: 2 (2=21-40%) | Post-emergence Test AMARE, percentage damage to the plant (five-point scale) [2]: 1 (1=0-20%) | Post-emergence Test ECHCG, percentage damage to the plant (five-point scale) [3]: 1 (1=0-20%) | Post-emergence Test IPOHE, percentage damage to the plant (five-point scale) [4]: 2 (2=21-40%) | Post-emergence Test SETFA, percentage damage to the plant (five-point scale) (Setaria faberi (SETFA) [5]): 1 (1=0-20%) | Post-emergence Test ZEAMX, percentage damage to the plant (five-point scale) (Zea mays (ZEAMX) [6]): 1 (1=0-20%) | percentage damage to the plant, AMARE [7]: 1 (1=0-20%) | percentage damage to the plant, SETFA (Setaria faberi (SETFA) [8]): 1 (1=0-20%) | percentage damage to the plant, ECHCG [9]: 1 (1=0-20%) | percentage damage to the plant, IPOHE [10]: 1 (1=0-20%) | percentage damage to the plant, ABUTH [11]: 1 (1=0-20%) | percentage damage to the plant, ZEAMX (Zea mays (ZEAMX) [12]): 1 (1=0-20%)

CCn1c(C)c(-c2ccc(C(F)F)cc2)c(=O)c(C(=O)O)c1-c1ccc(Cl)c(Cl)c1 [Compound 76, 2-(3,4-dichlorophenyl)-5-[4-(difluoromethyl)phenyl]-1-ethyl-6-methyl-4-oxo-pyridine-3-carboxylic acid]
Post-emergence Test ABUTH, percentage damage to the plant (five-point scale) [1]: 3 (3=41-60%) | Post-emergence Test AMARE, percentage damage to the plant (five-point scale) [2]: 1 (1=0-20%) | Post-emergence Test ECHCG, percentage damage to the plant (five-point scale) [3]: 2 (2=21-40%) | Post-emergence Test IPOHE, percentage damage to the plant (five-point scale) [4]: 2 (2=21-40%) | Post-emergence Test SETFA, percentage damage to the plant (five-point scale) (Setaria faberi (SETFA) [5]): 3 (3=41-60%) | Post-emergence Test ZEAMX, percentage damage to the plant (five-point scale) (Zea mays (ZEAMX) [6]): 1 (1=0-20%) | percentage damage to the plant, AMARE [7]: 1 (1=0-20%) | percentage damage to the plant, SETFA (Setaria faberi (SETFA) [8]): 3 (3=41-60%) | percentage damage to the plant, ECHCG [9]: 1 (1=0-20%) | percentage damage to the plant, IPOHE [10]: 2 (2=21-40%) | percentage damage to the plant, ABUTH [11]: 2 (2=21-40%) | percentage damage to the plant, ZEAMX (Zea mays (ZEAMX) [12]): 1 (1=0-20%)

CCn1c(C)c(-c2cc(F)cc(C#N)c2)c(=O)c(C(=O)O)c1-c1ccc(Cl)c(Cl)c1 [Compound 78, 5-(3-cyano-5-fluoro-phenyl)-2-(3,4-dichlorophenyl)-1-ethyl-6-methyl-4-oxo-pyridine-3-carboxylic acid]
Post-emergence Test ABUTH, percentage damage to the plant (five-point scale) [1]: 2 (2=21-40%) | Post-emergence Test AMARE, percentage damage to the plant (five-point scale) [2]: 1 (1=0-20%) | Post-emergence Test ECHCG, percentage damage to the plant (five-point scale) [3]: 2 (2=21-40%) | Post-emergence Test IPOHE, percentage damage to the plant (five-point scale) [4]: 1 (1=0-20%) | Post-emergence Test SETFA, percentage damage to the plant (five-point scale) (Setaria faberi (SETFA) [5]): 3 (3=41-60%) | Post-emergence Test ZEAMX, percentage damage to the plant (five-point scale) (Zea mays (ZEAMX) [6]): 1 (1=0-20%) | percentage damage to the plant, AMARE [7]: 2 (2=21-40%) | percentage damage to the plant, SETFA (Setaria faberi (SETFA) [8]): 4 (4=61-80%) | percentage damage to the plant, ECHCG [9]: 3 (3=41-60%) | percentage damage to the plant, IPOHE [10]: 2 (2=21-40%) | percentage damage to the plant, ABUTH [11]: 1 (1=0-20%) | percentage damage to the plant, ZEAMX (Zea mays (ZEAMX) [12]): 1 (1=0-20%)

CCn1c(C)c(-c2cc(F)cc(F)c2)c(=O)c(C(=O)O)c1-c1ccc(Cl)c(Cl)c1 [Compound 79, 2-(3,4-dichlorophenyl)-5-(3,5-difluorophenyl)-1-ethyl-6-methyl-4-oxo-pyridine-3-carboxylic acid]
Post-emergence Test ABUTH, percentage damage to the plant (five-point scale) [1]: 2 (2=21-40%) | Post-emergence Test AMARE, percentage damage to the plant (five-point scale) [2]: 1 (1=0-20%) | Post-emergence Test ECHCG, percentage damage to the plant (five-point scale) [3]: 1 (1=0-20%) | Post-emergence Test IPOHE, percentage damage to the plant (five-point scale) [4]: 2 (2=21-40%) | Post-emergence Test SETFA, percentage damage to the plant (five-point scale) (Setaria faberi (SETFA) [5]): 2 (2=21-40%) | Post-emergence Test ZEAMX, percentage damage to the plant (five-point scale) (Zea mays (ZEAMX) [6]): 1 (1=0-20%) | percentage damage to the plant, AMARE [7]: 3 (3=41-60%) | percentage damage to the plant, SETFA (Setaria faberi (SETFA) [8]): 5 (5=81-100%) | percentage damage to the plant, ECHCG [9]: 1 (1=0-20%) | percentage damage to the plant, IPOHE [10]: 2 (2=21-40%) | percentage damage to the plant, ABUTH [11]: 3 (3=41-60%) | percentage damage to the plant, ZEAMX (Zea mays (ZEAMX) [12]): 2 (2=21-40%)

From patent US12660819B2, “Herbicidal derivatives” (SYNGENTA CROP PROTECTION AG, priority 2020, dated 2026)
